According to patent publication US11007206B2, “Cyclic boronic acid ester derivatives and therapeutic uses thereof” (Melinta Subsidiary Corp., priority 2012, dated 2021):
Values joined by “and” are separate entries in the source; they are usually repeats but may differ in a detail not shown here. Identical values can stand only once.

Experiment: Plasma pharmacokinetics of Compound I after single intraperitoneal dose in Swiss-Webster mice (Example 1)
Type: in vivo
Settings: mouse plasma, individual animals
Method: Example 1 provides a summary of three pharmacokinetic studies Compound I conducted in Swiss-webster mice. The pharmacokinetics of 5 mg/kg, 15 mg/kg and 50 mg/kg of Compound I via the intraperitoneal route were discussed.
Compound I was prepared using the method described in the U.S. Publication 2012/0040932 A1. 100 mg of Compound I was dissolved in 30% 1N NaOH to ˜pH 5.0 as a stock solution. Compound I was further diluted in 0.9% saline to achieve target concentrations.
The specifications for animals used on this study were as follows: • Species: Mouse • Strain: CFW (Swiss) • Gender: Female • Source: Harlan Laboratories (Livermore, Calif.) • Number of Animals: 33 for each dose • Body Weight Range: 18-22 g at the start of the study
After acclimation, mice were administered a single intraperitoneal dose of Compound I at 5, 15, and 50 mg/kg. Groups of three mice were sacrificed at 0.08, 0.16, 0.25, 0.33, 0.5, 0.75, 1.0, 2.0, 3.0, and 4.0 h after dosing. Blood samples (one sample per animal) were collected by cardiac puncture in a heparin containing tube. Blood samples were centrifuged within 5 min of collection at 12000 g for 5 min to obtain plasma. The plasma samples were stored on −80° C. until analyzed.
Compound I standard curves were prepared in plasma from 0.1 to 100 μg/mL. 50 μl aliquots of sample were placed in 1.5 mL microcentrifuge tubes. 20 μl of Compound II (10 μg/mL) was added as internal standard to each sample or standard. 20 μl of 30% trichloroacetic acid was then added to each sample or standard. The samples were mixed using a vortex mixer centrifuged for 10 min at 15,000 RPM using a tabletop centrifuge. The supernatant (approx. […]) was removed and added to 100 μl of water in a 96-well plate. The samples were mixed again using a vortex mixer. 10 μl of each sample was injected onto an HPLC-MS for quantification.
The HPLC-MS conditions for plasma analysis are as follows: • Column: Phenomenex Fusion-RP or equivalent reversed-phase column, 5 um, 50×2 mm. • Flow rate: 0.6 mL/min. • Mobile phase A: 0.1% formic acid in water. • Mobile phase B: 0.1% formic acid in acetonitrile. • Gradient: 5-60% B in 1.5 min. • Mass spectrometer: Negative ion mode with electrospray ionization. • MS/MS: Compound I-Q1-m/e=296, Q3-m/e=234. • Compound II-Q1-m/e=331, Q3-m/e=201.
Plasma concentrations were fit using a one compartment IV infusion model (WinNonlinVersion 5.3, Pharsight Corp, and Mountain View, Calif.).

O=C(O)C[C@@H]1CC[C@H](NC(=O)Cc2cccs2)B(O)O1 [Compound I]
Calc. Conc. (plasma concentration) (5 mg/kg intraperitoneal, samples m.p. 2.x = 2nd time point (0.16 h), 5 mg/kg): 9.68 µg/mL and 7.41 µg/mL and 3.49 µg/mL | Calc. Conc. (plasma concentration) (5 mg/kg intraperitoneal, samples m.p. 3.x = 3rd time point (0.25 h), 5 mg/kg): 9.08 µg/mL and 7.43 µg/mL and 3.8 µg/mL | Calc. Conc. (plasma concentration) (5 mg/kg intraperitoneal, samples m.p. 4.x = 4th time point (0.33 h), 5 mg/kg): 3.37 µg/mL and 1.01 µg/mL and 3.73 µg/mL | Calc. Conc. (plasma concentration) (5 mg/kg intraperitoneal, samples m.p. 5.x = 5th time point (0.5 h), 5 mg/kg): 1.87 µg/mL and 1.31 µg/mL | Calc. Conc. (plasma concentration) (5 mg/kg intraperitoneal, samples m.p. 6.x = 6th time point (0.75 h), 5 mg/kg): 0.110 µg/mL and 0.872 µg/mL and 0.461 µg/mL | Calc. Conc. (plasma concentration) (5 mg/kg intraperitoneal, samples m.p. 7.x = 7th time point (1.0 h), 5 mg/kg): 0.551 µg/mL and 0.213 µg/mL and 0.457 µg/mL | Calc. Conc. (plasma concentration) (5 mg/kg intraperitoneal, samples m.p. 8.x = 8th time point (2.0 h), 5 mg/kg): 0.0898 µg/mL and 0.0404 µg/mL and 0.0440 µg/mL | Calc. Conc. (plasma concentration) (5 mg/kg intraperitoneal, samples m.p. 9.x = 9th time point (3.0 h), 5 mg/kg): 0.0103 µg/mL and 0.0354 µg/mL and 0.00806 µg/mL | Calc. Conc. (plasma concentration) (5 mg/kg intraperitoneal, samples m.p. 10.x = 10th time point (4.0 h), 5 mg/kg): 0.00577 µg/mL and 0.00418 µg/mL | Calc. Conc. (plasma concentration) (15 mg/kg intraperitoneal, samples m.p. 1.x = 1st time point (0.08 h), 15 mg/kg): 9.67 µg/mL | Calc. Conc. (plasma concentration) (15 mg/kg intraperitoneal, samples m.p. 2.x = 2nd time point (0.16 h), 15 mg/kg): 8.58 µg/mL | Calc. Conc. (plasma concentration) (15 mg/kg intraperitoneal, samples m.p. 3.x = 3rd time point (0.25 h), 15 mg/kg): 9.53 µg/mL and 5.59 µg/mL and 14.3 µg/mL | Calc. Conc. (plasma concentration) (15 mg/kg intraperitoneal, samples m.p. 4.x = 4th time point (0.33 h), 15 mg/kg): 5.6 µg/mL and 12.3 µg/mL and 4.44 µg/mL | Calc. Conc. (plasma concentration) (15 mg/kg intraperitoneal, samples m.p. 5.x = 5th time point (0.5 h), 15 mg/kg): 4.07 µg/mL and 3.52 µg/mL and 7.05 µg/mL | Calc. Conc. (plasma concentration) (15 mg/kg intraperitoneal, samples m.p. 6.x = 6th time point (0.75 h), 15 mg/kg): 0.0261 µg/mL and 3.72 µg/mL and 2.99 µg/mL | Calc. Conc. (plasma concentration) (15 mg/kg intraperitoneal, samples m.p. 7.x = 7th time point (1.0 h), 15 mg/kg): 0.534 µg/mL and 2.28 µg/mL and 1.61 µg/mL | Calc. Conc. (plasma concentration) (15 mg/kg intraperitoneal, samples m.p. 8.x = 8th time point (2.0 h), 15 mg/kg): 0.145 µg/mL and 0.0926 µg/mL | Calc. Conc. (plasma concentration) (15 mg/kg intraperitoneal, samples m.p. 9.x = 9th time point (3.0 h), 15 mg/kg): <0 ug/mL (2×) and 0.0178 ug/mL | Calc. Conc. (plasma concentration) (50 mg/kg intraperitoneal, samples m.p. 1.x = 1st time point (0.08 h), 50 mg/kg): 39.4 µg/mL and 26.6 µg/mL | Calc. Conc. (plasma concentration) (50 mg/kg intraperitoneal, samples m.p. 2.x = 2nd time point (0.16 h), 5x dil., 50 mg/kg): 64.7 µg/mL and 57.7 µg/mL and 58.9 µg/mL | Calc. Conc. (plasma concentration) (50 mg/kg intraperitoneal, samples m.p. 3.x = 3rd time point (0.25 h), 5x dil., 50 mg/kg): 56.8 µg/mL and 61.7 µg/mL and 64.2 µg/mL | Calc. Conc. (plasma concentration) (50 mg/kg intraperitoneal, samples m.p. 4.x = 4th time point (0.33 h), 50 mg/kg): 42.1 µg/mL and 43.6 µg/mL and 135 µg/mL | Calc. Conc. (plasma concentration) (50 mg/kg intraperitoneal, samples m.p. 5.x = 5th time point (0.5 h), 50 mg/kg): 34.7 µg/mL and 27.0 µg/mL and 4.06 µg/mL | Calc. Conc. (plasma concentration) (50 mg/kg intraperitoneal, samples m.p. 6.x = 6th time point (0.75 h), 50 mg/kg): 11.4 µg/mL and 15.0 µg/mL | Calc. Conc. (plasma concentration) (50 mg/kg intraperitoneal, samples m.p. 7.x = 7th time point (1.0 h), 50 mg/kg): 9.26 µg/mL and 2.33 µg/mL and 1.40 µg/mL | Calc. Conc. (plasma concentration) (50 mg/kg intraperitoneal, samples m.p. 8.x = 8th time point (2.0 h), 50 mg/kg): 0.555 µg/mL and 1.30 µg/mL and 0.582 µg/mL | Calc. Conc. (plasma concentration) (50 mg/kg intraperitoneal, samples m.p. 9.x = 9th time point (3.0 h), 50 mg/kg): 0.120 µg/mL and 0.105 µg/mL | Calc. Conc. (plasma concentration) (50 mg/kg intraperitoneal, samples m.p. 10.x = 10th time point (4.0 h), 50 mg/kg): 0.0471 µg/mL and 0.143 µg/mL and 0.199 µg/mL
